Test results: publication PMC4523496 (Molecular psychiatry, 2015)

Assays:
[1] = target: T1, MD-2 (Homo sapiens, UniProt Q9Y6Y9); test: Bis-ANS displacement assay; assay type: binding
T1 sequence (Q9Y6Y9 19-160): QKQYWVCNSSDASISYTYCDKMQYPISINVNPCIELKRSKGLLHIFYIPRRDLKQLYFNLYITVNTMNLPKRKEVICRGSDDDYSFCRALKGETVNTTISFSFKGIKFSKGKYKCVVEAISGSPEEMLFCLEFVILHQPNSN

[2] = target: T1, MD-2; test: Biophysical ELISA binding assays
[3] = tested on: extracellular dopamine in the NAc; test: In vivo microdialysis of NAc shell dopamine; parameters: species or system rat; conditions: for extracellular NAc dopamine, compound alone: cocaine 10 mg/kg systemic, neurotensin 10 nMol or LPS 10 ng intra-VTA; for increase of NAc dopamine concentrations: intra-VTA LPS vs systemic cocaine; for effect on basal NAc dopamine levels: antagonist alone; for effect on intra-VTA neurotensin-induced elevation of NAc dopamine: control for non-specific disruption of neuronal responsiveness
[4] = tested on: cocaine conditioned place preference; test: Conditioned place preference; assay type: in vivo, rat; conditions: tested drug-free; cocaine 10 mg/kg i.p.
[5] = tested on: IL-1β mRNA in VTA, NAc, vmPFC; test: IL-1β mRNA in brain micro-punches after systemic drug; assay type: in vivo, rat; conditions: (+)-naloxone […] s.c. twice; 30 min and 2 h after cocaine 10 mg/kg
[6] = assay type: in vivo, rat; conditions: pretreatment […] s.c. twice; cocaine 10 mg/kg i.p.; hippocampus
[7] = tested on: isolated neonatal microglial cells; test: IL-1β mRNA expression in isolated neonatal microglial cell culture; conditions: neonatal microglia; (+)-naloxone 1, 10, 100 µM co-treatment
[8] = tested on: cocaine self-administration; test: Rat self-administration; assay type: in vivo; conditions: pre-session (+)-naltrexone s.c.

COC(=O)[C@H]1[C@@H](OC(=O)c2ccccc2)C[C@@H]2CC[C@H]1N2C [Cocaine]
Ki [1]: 23.9 ± 5.9 µM
binding to human MD-2 (ELISA) ([2]; aptamer-immobilized cocaine): bound to human MD-2 in a concentration-dependent manner
extracellular NAc dopamine, compound alone [3]: robust increases in extracellular NAc dopamine
increase of NAc dopamine concentrations [3]: 300%
conditioned place preference, compound alone [4]: produces place preference

IL1ra: IL-1 receptor antagonist
effect on basal NAc dopamine levels [3]: did not alter basal DA levels in the NAc
effect on intra-VTA neurotensin-induced elevation of NAc dopamine [3]: did not alter neurotensin-induced dopamine elevations in the NAc

neurotensin
extracellular NAc dopamine, compound alone [3]: induced increased NAc dopamine

C=CCN1CC[C@]23c4c5ccc(O)c4O[C@H]2C(=O)CC[C@]3(O)[C@H]1C5 [(+)-Naloxone]
effect on cocaine-induced increases of intra-VTA IL1β mRNA [5]: blocked
effect on basal NAc dopamine levels [3]: did not influence basal dopamine levels
effect on intra-VTA neurotensin-induced elevation of NAc dopamine [3]: unaltered
conditioned place preference, compound alone [4]: produced no appetitive or aversive CPP
effect on brain cocaine concentrations [6]: not altered
effect on cocaine-induced upregulation of IL-1β mRNA [7]: blocked

lipopolysaccharide [LPS]
competition with cocaine for binding to MD-2 (ELISA) ([2]; varying concentrations of LPS added): displaced cocaine binding to MD-2
extracellular NAc dopamine, compound alone [3]: increased
increase of NAc dopamine concentrations [3]: < 200%

CN(C)c1ccc(O)c2c1C[C@H]1C[C@H]3[C@H](N(C)C)C(O)=C(C(N)=O)C(=O)[C@@]3(O)C(O)=C1C2=O [minocycline]
conditioned place preference, compound alone [4]: neither water nor minocycline altered place preference

O=C1CC[C@]2(O)[C@@H]3Cc4ccc(O)c5c4[C@]2(CCN3CC2CC2)[C@@H]1O5 [(+)-naltrexone]
effect on food-maintained responding [8]: failed to suppress responding to food
effect on responding for cocaine (self-administration) ([8]; fixed-ratio dose-response): suppressed responding for cocaine at the peak cocaine doses
